Laboratory results as given in ChEMBL document CHEMBL4130583, “Artocarmins G-M, Prenylated 4-Chromenones from the Stems of Artocarpus rigida and Their Tyrosinase Inhibitory Activities” (J Nat Prod, 2017).

Key:
[1] = biological target: T1, Tyrosinase (Homo sapiens) (UniProt P14679); assay: Potency index, ratio of kojic acid IC50 to compound IC50 for tyrosinase (unknown origin)
T1 sequence (whole entry): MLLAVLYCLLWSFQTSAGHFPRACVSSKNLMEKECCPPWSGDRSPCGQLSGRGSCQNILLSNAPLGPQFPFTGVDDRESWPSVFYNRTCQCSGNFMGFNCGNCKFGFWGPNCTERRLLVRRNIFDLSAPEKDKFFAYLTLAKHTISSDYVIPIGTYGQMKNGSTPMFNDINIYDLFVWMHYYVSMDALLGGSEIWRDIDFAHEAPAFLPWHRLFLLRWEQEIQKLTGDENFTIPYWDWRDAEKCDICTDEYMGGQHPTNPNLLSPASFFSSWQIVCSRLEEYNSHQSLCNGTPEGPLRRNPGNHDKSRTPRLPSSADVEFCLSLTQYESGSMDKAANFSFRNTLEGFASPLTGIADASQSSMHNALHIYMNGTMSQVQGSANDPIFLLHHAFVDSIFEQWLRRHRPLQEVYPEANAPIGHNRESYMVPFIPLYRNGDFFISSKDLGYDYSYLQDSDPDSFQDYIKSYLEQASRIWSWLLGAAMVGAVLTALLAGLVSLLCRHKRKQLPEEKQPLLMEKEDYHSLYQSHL

Tyrosinase = biological target: T2, Tyrosinase (Homo sapiens, UniProt P14679); assay: Inhibition of tyrosinase (unknown origin) using L-dihydroxyphenylalanine as substrate preincubated for 30 mins followed by substrate addition measured for 7 mins by spectrophotometric analysis
T2 sequence (P14679 whole entry): T1 sequence (whole entry)

## O=c1cc(-c2ccc(O)cc2O)oc2cc(O)cc(O)c12 [NORARTOCARPETIN]
[1]
  Ratio IC50: 1900
Tyrosinase
  IC50: 0.023 µM

## COc1c(-c2oc3cc(O)cc(O)c3c(=O)c2CC=C(C)C)cc(O)c(O)c1CC=C(C)C
Tyrosinase
  IC50: 45.3 µM
